Data: patent EP0389368B1, “New derivatives of 6-(1-piperazinyl) 2,5-pyridine diamine N,N,N',N'-substituted, procedure for their production and intermediates, their use as medicines and pharmaceutical preparations containing them” (priority 1989, dated 1990)

Tests used:
[1] = tested on: péroxydation lipidique; experiment: MDA formation test, non-enzymatic lipid peroxidation triggered by ferrous sulfate/ascorbate in rat liver microsomes; assay type: biochemical, rat S.D; settings: FeSO4/ascorbate, 15 min 37°C
Text: (§1) L'activité antioxydante est recherchée, in vitro, par le test de formation de la malonyldialdéhyde (MDA) qui mesure la péroxydation lipidique déclenchée : soit a) de façon non enzymatique par le sulfate ferreux, dans • 1) des homogénats de cerveau ou • 2) des microsomes hépatiques de rat soit b) de façon enzymatique par NADPH et le tétrachlorure de carbone, dans des microsomes hépatiques de rat. 1.1 : La formation de MDA est mesurée sur des homogénats au 1/10^e (V/V) de cerveaux de rat S.D (200 g) préparés dans un tampon de Krebs pH 7,4 selon les conditions décrites dans J. Biol. Chem. 262 (1987) 10438-10440. On incube 1 ml d'homogénat pendant 60 mn à 37°C en présence de 25 microlitres d'éthanol contenant ou non le produit à tester, après addition de 25 microlitres de solution de sulfate ferreux préparée extemporanément dans de l'eau dégazée à l'argon (200 micromoles final). On prélève 0,25 ml de mélange incubé et ajoute 1,5 ml d'acide phosphorique à 1 %, 0,25 ml de solution 200 micromoles de déféroxamine (Desféral^R Ciba Geigy) dans l'eau, 10 microlitres de tert-butylhydroxytoluène (BHT) à 8,7 mg/ml dans l'éthanol et 0,5 ml d'acide thiobarbiturique (TBA) à 0,6 % dans l'eau. On chauffe le mélange à 100°C pendant 45 mn, refroidit, ajoute 4 ml de n-butanol, centrifuge pendant 15 mn à 4000 t/mn puis lit la DO à 535 nm de la fraction surnageante. On incube dans les mêmes conditions les blancs de réaction en absence de Fe++. On calcule le pourcentage d'inhibition : pourcentage d'inhibition =(DO en présence de produit)/(DO en absence de produit) [formula] Résultats :
1.2 : La formation de MDA est mesurée sur des microsomes hépatiques de rat S.D (200 g) préparés à partir de la fraction sédimentée à 100.000 g d'un homogénat de foie dans un tampon sucrose dont on utilise la fraction restant insoluble à 100.000 g dans un tampon de pyrophosphate de sodium 100 mM pH 7,4 et que l'on homogénéise dans un tampon phosphate de sodium 100 mM pH 7,4 à 20 % de glycérol, puis que l'on conserve à -80°C. On incube les microsomes pendant 15 mn à 37°C dans 1 ml contenant du tampon Tris-HCl 35 mM, KCl 0,1 M pH 7,4, 1 mg de protéine microsomale, 5 microlitres d'éthanol renfermant ou non le produit à tester, 250 microlitres de solution d'ascorbate dans le tampon Tris (0,5 mM final), après l'addition de 250 microlitres de sulfate ferreux préparée extemporanément dans le tampon Tris (6 micromoles final). On arrête la réaction par addition de 2 ml d'une solution d'acide trichloracétique 1 M dans l'acide chlorhydrique 0,25 M contenant 0,4 % d'acide thiobarbiturique. On chauffe le mélange à 85°C pendant 25 mn, refroidit, centrifuge pendant 15 mn à 3500 t/mn puis lit la DO à 535 nm de la fraction surnageante. On effectue en même temps les blancs de réaction en absence de Fe++. On calcule le pourcentage d'inhibition comme précédemment.

[2] = tested on: péroxydation lipidique; experiment: MDA formation test, enzymatic lipid peroxidation triggered by NADPH and carbon tetrachloride in liver microsomes of phenobarbital-pretreated rats; assay type: biochemical; settings: rat liver microsomes (phenobarbital-pretreated), NADPH + CCl4, 15 min 37°C
Text: as §1
2 : La formation de MDA est mesurée sur des microsomes hépatiques de rats prétraités au phénobarbital (80 mg/kg par 3 injections i.p), préparés comme décrit précédemment. On incube les microsomes pendant 15 mn à 37°C dans 1 ml contenant du tampon phosphate 0,1 M pH 7,4, 1 mg de protéine microsomale, 5 microlitres d'éthanol renfermant ou non le produit à tester, 5 microlitres de tétrachlorure de carbone (5,5 mM final) après l'addition de 50 microlitres de solution de NADPH dans le tampon phosphate (1 mM final). On arrête la réaction puis effectue le dosage selon les conditions décrites précédemment.

[3] = tested on: péroxydation lipidique; experiment: MDA formation test, non-enzymatic lipid peroxidation triggered by ferrous sulfate in rat brain homogenates; assay type: biochemical, rat S.D; settings: rat brain homogenate, FeSO4, 60 min 37°C
Text: as §1, with “[formula]” for “[formula] Résultats :”

[4] = tested on: oedème plantaire provoqué par l'acide arachidonique; experiment: Arachidonic acid-induced paw oedema test (anti-oedema activity); assay type: in vivo, rats mâles EOPS de souche Sprague Dawley; settings: rat; for Variation de volume de la patte 1 heure après AA: ** p < 0,01 (Dunnett)
Text: L'activité anti-inflammatoire est évaluée in vivo par mesure de l'activité anti-oedémateuse à l'aide du test de l'oedème plantaire provoqué par l'acide arachidonique décrit par M.J. Di Martino et al. (Agents and Actions 1987 21 3/4 303).
Les animaux d'expérimentation sont des rats mâles EOPS de souche Sprague Dawley pesant 150-170 g (Iffa Credo).
Ce test est pratiqué sur des groupes de 8 rats mâles pesant 130 à 150 g à jeun depuis 16 heures. L'acide arachidonique est injecté sous l'aponévrose plantaire d'une patte postérieure à la dose de 0,2 mg sous un volume de 0,1 ml. Le volume de la patte est mesuré à l'aide d'un pléthysmomètre à eau, avant et 1 heure après l'injection de l'acide arachidonique. La différence entre ces deux volumes représente le degré d'inflammation. Les animaux sont traités par les produits à étudier ou le véhicule seul en même temps que l'injection de l'acide arachidonique.
Les produits étudiés ont été administrés par voie orale sous un volume de 4 ml/kg après avoir été mis en suspension dans la méthylcellulose à 0,5%. Toutes les expériences ont été réalisées avec comme produit de référence la dexaméthasone à la dose de 0,5 mg/kg par voie orale.
Les résultats sont exprimés en variation de volume de la patte 1 heure après l'injection d'acide arachidonique (AA), en absence ou en présence du produit à tester administré à différentes doses.
L'interprétation statistique des résultats a été effectuée selon le test de Dunnett (* p < 0,05 - ** p < 0,01) ou selon le test de Mann Whitney (° p < 0,05 - °° p < 0,01).
Pour chaque dose administrée par voie orale, on calcule le pourcentage d'inhibition de l'oedème par le produit testé, par rapport au témoin.

Structure (SMILES) | pourcentage d'inhibition ([1]; 1.10^-5M, 10 µM) | pourcentage d'inhibition ([1]; 1.10^-6M, 1 µM) | pourcentage d'inhibition ([1]; 5.10^-6M, 5 µM) | pourcentage d'inhibition ([2]; 1.10^-5M, 10 µM) | pourcentage d'inhibition ([2]; 1.10^-6M, 1 µM) | pourcentage d'inhibition ([2]; 5.10^-6M, 5 µM) | pourcentage d'inhibition ([3]; 1.10^-4M, 100 µM) | pourcentage d'inhibition ([3]; 1.10^-5M, 10 µM) | pourcentage d'inhibition ([3]; 5.10^-4M, 500 µM) | Variation de volume de la patte 1 heure après AA ([4]; dose 20 mg/kg oral) | Variation de volume de la patte 1 heure après AA ([4]; dose 0,5 mg/kg oral) | Variation de volume de la patte 1 heure après AA ([4]; dose 1 mg/kg oral) | activité anti-inflammatoire ([4]; result in words, from the dose of 0,5 mg/kg oral)
CCN(CC)c1ccc(N(CC)CC)c(N2CCNCC2)n1 [Produit de l'ex. 1, N,N,N′,N′-tétraéthyl 6-(1-pipérazinyl) 2,5-pyridine diamine] | 99,4 pourcentage | 44,0 pourcentage | 99,4 pourcentage | 96 ± 1 pourcentage | 43 ± 3 pourcentage | 93 ± 0,2 pourcentage | 67,4 ± 8,6 pourcentage | 60,3 ± 9,1 pourcentage | 74,2 ± 3,8 pourcentage | 0,33 ± 0,06** cm3 | – | – | –
CCN(CC)c1ccc(N(CC)CC)c(N2CCN(CC(=O)[C@H]3[C@H](C)C[C@H]4[C@@H]5CCC6=CC(=O)C=C[C@]6(C)C5=CC[C@@]43C)CC2)n1 [Produit de l'ex. 2, 21-[4-[3,6-bis(diéthylamino) 2-pyridyl] 1-pipérazinyl] 16alpha-méthyl pregna-1,4,9(11)-triène-3,20-dione] | 99,8 pourcentage | 42,0 ± 5 pourcentage | 99,5 pourcentage | 91 ± 1 pourcentage | 49 ± 1,5 pourcentage | 88 ± 1 pourcentage | 55,6 ± 1,3 pourcentage | 63,8 ± 4,3 pourcentage | 60,4 ± 4,4 pourcentage | – | 0,32 ± 0,04** cm3 | 0,32 ± 0,01** cm3 | forte activité
